Here are results for eight molecules from patent publication US10870627B2, “Salt of quinazoline derivative, preparation method therefor and application thereof” (SHANGHAI PHARMACEUTICALS HOLDING CO., LTD., priority 2016, dated 2020).

Data set [1] is described as follows: Dynamic vapor sorption (DVS), isothermal absorption analysis. The format is physicochemical. The procedure:
In the present invention, according to the common knowledge in the art, the amount of water absorption obtained from the dynamic vapor sorption (DVS) pattern is expressed in percentage by weight.
The isothermal absorption analysis (DVS) data was collected from TA Instruments Q5000 TGA. The software for instrument control was Thermal Advantage and software for analysis was Universal Analysis. 1-10 mg of the sample was generally placed in a platinum crucible, and the weight change of the sample during the relative humidity changing from 20% to 80% was recorded by the TA software. Depending on the specifics of the sample, different steps of sample adsorption and desorption were also involved.

A short description of a further data set: Solution stability test. It is filed as physicochemical. As for the experimental part:
About 15 mg of the sample was weighed accurately, dissolved with 25 mL of the test solvent (10% aqueous acetone solution, pH=4.0 B-R buffer solution, SGF, SIF) via ultrasound for 20 minutes. The solution was divided into four portions and placed in the clear glass vials, followed by sealing. The samples were exposed in different environments and sampled on day 0 and day 5. The purity of each sample was determined by HPLC, and the number of impurities greater than 0.05% was calculated and compared with the samples on day 0. The exposure environments are:
Room temperature and light-proof test, 25° C.; […]
Illumination experiment (4500±500 lx), 25° C.;
Oxidation experiment (3% v/v hydrogen peroxide), 25° C.

A short description of data set [2]: Solid-state stability test. The format is physicochemical. As for the experimental part:
An appropriate amount of the drugs were placed in the surface dish, spread to a thickness of 3-5 mm, and exposed in high temperature, high temperature and high humidity, illumination and oxidation conditions for 10 days respectively, and the solid-state characterization was performed. The purity and the number of impurities 0.05%) of the samples for testing were determined by HPLC, and compared with the samples on day 0. The exposure conditions are:
High temperature (an oven with T=60° C.);
Illumination (25° C., a 4500±500 lx light incubator);
Oxidation (25° C., a closed container containing urea hydrogen peroxide).

A short description of data set [3]: Comparison of absorption in rats after intragastric administration of free base and salt (plasma pharmacokinetics). The following applies: for AUC (0-t) and Cmax, comparison in words: rats, oral, same dose, free base and 6 salts. The format is in vivo, SD rats. The procedure: The blood sample was centrifuged at 8000 RPM for 5 minutes, followed by the isolation of the upper plasma. […] 200 μL of the supernatant was taken and centrifuged again for 10 minutes. 50 μL of the supernatant was injected in a 96-well plate. The plasma drug concentration was determined by LC/MS/MS, and the corresponding pharmacokinetic parameters were calculated.

Data set [4] can be described thus: Water solubility at 20° C. determined by HPLC. The format is physicochemical.
Protocol: The solubility was determined as follows: a certain amount of the sample was weighed and the solvent was added thereto in portions with stirring or ultrasonication to accelerate dissolution; the amount of the consumed solvent was recorded once the sample was dissolved. […] A certain volume of the solution was taken, followed by filtration, concentration, dissolved with a certain volume of other suitable solvents and subjected to HPLC measurement to obtain accurate data of the solubility.
Setting [5] is: relative humidity range of 50-80%.
Setting [6] is: 10% aqueous acetone solution, 5 d, High temperature.
Setting [7] is: 10% aqueous acetone solution, 5 d, High temperature and high humidity.
Where [8] appears, read: 10% aqueous acetone solution, 5 d, Illumination (4500±500 lx, 25° C.).
Where [9] appears, read: B-R Buffer solution (pH=4.0), 5 d, High temperature.
Setting [10] is: B-R Buffer solution (pH=4.0), 5 d, High temperature and high humidity.
The mark [11] stands for this setting: B-R Buffer solution (pH=4.0), 5 d, Illumination (4500±500 lx, 25° C.).
[12] abbreviates: B-R Buffer solution (pH=4.0), 5 d, Oxidation (3% v/v hydrogen peroxide, 25° C.).
Where [13] appears, read: SGF, 5 d, High temperature and high humidity.
The mark [14] stands for this setting: SGF, 5 d, Illumination (4500±500 lx, 25° C.).
Setting [15] is: SGF, 5 d, Oxidation (3% v/v hydrogen peroxide, 25° C.).
Setting [16] is: SIF, 5 d, High temperature and high humidity.
[17] abbreviates: SIF, 5 d, Illumination (4500±500 lx, 25° C.).
Setting [18] is: SIF, 5 d, Oxidation (3% v/v hydrogen peroxide, 25° C.).
The mark [19] stands for this setting: 10 d, High temperature (oven, T=60° C.).
Setting [20] is: 10 d, High temperature and high humidity (40° C., 75% relative humidity).
Where [21] appears, read: 10 d, Illumination (25° C., 4500±500 lx).
The mark [22] stands for this setting: 10 d, Oxidation (25° C., closed container with urea hydrogen peroxide).
Where [23] appears, read: rat, po, 20 umol/kg, SD rats, intragastric administration, plasma.
[24] abbreviates: SD rats, 20 μmol/kg, intragastric administration, plasma.

Molecules are shown by their SMILES. Read-outs that look alike come from different tables or passages of the source.

With `C=C(F)C(=O)Nc1cc2c(Nc3ccc(F)c(Cl)c3)ncnc2cc1OCCCN1CCOCC1.O.O.O=C(O)CC(O)(CC(=O)O)C(=O)O` [crystal form 11 of the dihydrate], in data set [1] (setting [5]), the “stability of the hydrate (DVS), in words” value is on record as “stable” and the “weight change (water absorbed) by DVS” value turned out to be 5.3%.
For `C=C(F)C(=O)Nc1cc2c(Nc3ccc(F)c(Cl)c3)ncnc2cc1OCCCN1CCOCC1.O.O.O.O=C(O)CC(O)(CC(=O)O)C(=O)O` [crystal form 10 of the trihydrate], in data set [1] (below a relative humidity of 50%), the “water eliminated by DVS” value was found to be 3.5%. Besides, in data set [1] (setting [5]), the “stability of the hydrate (DVS), in words” value is given as “stable” and the “weight change (water absorbed) by DVS” value was 1.1%.
Regarding `C=C(F)C(=O)Nc1cc2c(Nc3ccc(F)c(Cl)c3)ncnc2cc1OCCCN1CCOCC1` [N-[4-(3-chloro-4-fluoroanilino)]-7-(3-morpholinopropoxy)-6-(2-fluoroacrylamido)-quinazoline, reference compound], the Purity in “Solution stability test” (10% aqueous acetone solution, 0 d) is on record as 93.4%; in “Solution stability test” (setting [6]) it was 83.1%; in “Solution stability test” (setting [7]) it was 13.3%; in “Solution stability test” (setting [8]) it was 61.5%; in “Solution stability test” (10% aqueous acetone solution, 5 d, Oxidation (3% v/v hydrogen peroxide, 25° C.)) it was “Complete”; in the data set “Solution stability test” (B-R Buffer solution (pH=4.0), 0 d) it was 99.0%. Moreover, the Purity in the data set “Solution stability test” (setting [9]) was determined as 99.0%; in “Solution stability test” (setting [10]), 95.0%; in the data set “Solution stability test” (setting [11]), 99.0%; in the data set “Solution stability test” (setting [12]) it was 40.6%; in “Solution stability test” (SGF, 0 d) it was 99.0%; in “Solution stability test” (SGF, 5 d, High temperature) it was 99.0%. The Purity stood at 94.2% in the data set “Solution stability test” (setting [13]); 99.0% in “Solution stability test” (setting [14]); 84.3% in “Solution stability test” (setting [15]); 88.9% in the data set “Solution stability test” (SIF, 0 d); 85.6% in the data set “Solution stability test” (SIF, 5 d, High temperature); 81.9% in “Solution stability test” (setting [16]). Also, the Purity was 50.0% in “Solution stability test” (setting [17]); 62.7% in “Solution stability test” (setting [18]); 99.0% in data set [2] (setting [19]); 99.0% in data set [2] (setting [20]); 99.0% in data set [2] (setting [21]); 99.0% in data set [2] (setting [22]). The Number of impurities is given as 2 in the data set “Solution stability test” (10% aqueous acetone solution, 0 d, impurities greater than 0.05%); 2 in “Solution stability test” (setting [6]); 6 in “Solution stability test” (setting [7]); 4 in the data set “Solution stability test” (setting [8]); 1 in “Solution stability test” (B-R Buffer solution (pH=4.0), 0 d, impurities greater than 0.05%); 1 in “Solution stability test” (setting [9]). Besides, the Number of impurities in the data set “Solution stability test” (setting [10]) is 4; in “Solution stability test” (setting [11]) it was 1; in the data set “Solution stability test” (setting [12]), 13; in “Solution stability test” (SGF, 0 d, impurities greater than 0.05%) it was 2; in the data set “Solution stability test” (SGF, 5 d, High temperature) it was 2; in the data set “Solution stability test” (setting [13]), 4. Further, the Number of impurities in “Solution stability test” (setting [14]) came to 2; in “Solution stability test” (setting [15]), 3; in the data set “Solution stability test” (SIF, 0 d, impurities greater than 0.05%) it was 1; in “Solution stability test” (SIF, 5 d, High temperature) it was 2; in the data set “Solution stability test” (setting [16]) it was 4; in “Solution stability test” (setting [17]), 18. The Number of impurities is reported as 5 in “Solution stability test” (setting [18]); 1 in data set [2] (0 d); 2 in data set [2] (setting [19]); 3 in data set [2] (setting [20]); 2 in data set [2] (setting [21]); 3 in data set [2] (setting [22]). For the same molecule, the AUC (0-t) in data set [3] (rat, po, 20 umol/kg, SD rats, 20 μmol/kg, intragastric administration, plasma, read-out: AUC (0-t) (converted)) was 2.05 µM·h. The MRT last in data set [3] (rat, po, 20 umol/kg, SD rats, 20 μmol/kg, intragastric administration, plasma, read-out: MRT (0-T) (converted)) was 6.66 h. Also, the time to peak (Tmax) (usually the time from dosing to the highest level) in data set [3] (rat, po, 20 umol/kg, SD rats, 20 μmol/kg, intragastric administration, plasma, read-out: Tmax (converted)) was 1 h. Moreover, in data set [3] (setting [23]), the Cmax was determined as 310 ± 70 nM. Also, the half-life (usually the time needed for the level to fall by half in the phase considered) in data set [3] (setting [23]) turned out to be 4.28 ± 1.77 h.
Regarding `C=C(F)C(=O)Nc1cc2c(Nc3ccc(F)c(Cl)c3)ncnc2cc1OCCCN1CCOCC1.O.O.O=C(O)CC(O)(CC(=O)O)C(=O)O` [crystal form 5 of the dihydrate], the “weight change (water absorbed) by DVS” value in data set [1] (relative humidity range of 0-80%) amounted to 0.4%.
`C=C(F)C(=O)Nc1cc2c(Nc3ccc(F)c(Cl)c3)ncnc2cc1OCCCN1CCOCC1.O=C(O)[C@H](O)[C@@H](O)[C@H](O)[C@H](O)CO`: in data set [4], the “water solubility at 20° C. determined by HPLC” value was 51.4 µg/mL. In data set [3] (setting [24]), the “AUC (0-t)” value came out at 8.0733 ± 3.3618 µM·h, the “MRT (0-T)” value stood at 6.2613 ± 2.5515 h, the time to peak (Tmax) is 1.333 ± 0.5773 h and the t1/2 amounted to 3.5572 ± 0.3487 h. Also, in data set [3] (SD rats, 20 μmol/kg, intragastric administration, plasma, listed as mono-D-gluconate), the Cmax is 1120 ± 280 nM. Further, in data set [3], the “AUC (0-t) and Cmax, comparison in words” value is on record as “relatively low”.
Turning to `C=C(F)C(=O)Nc1cc2c(Nc3ccc(F)c(Cl)c3)ncnc2cc1OCCCN1CCOCC1.O=C(O)CC(O)(CC(=O)O)C(=O)O` [crystal form 13 of the monocitrate], the “weight change (water absorbed) by DVS” value in data set [1] (relative humidity range of 20-80%) stood at 0.2%.
On to `C=C(F)C(=O)Nc1cc2c(Nc3ccc(F)c(Cl)c3)ncnc2cc1OCCCN1CCOCC1.O.O.O=C(O)CC(O)(CC(=O)O)C(=O)O` [crystal form 7 of the dihydrate], for which the “weight change (water absorbed) by DVS” value in data set [1] (relative humidity range of 10-80%) stood at 0.38%.
For `C=C(F)C(=O)Nc1cc2c(Nc3ccc(F)c(Cl)c3)ncnc2cc1OCCCN1CCOCC1.Cl.O`, the “water solubility at 20° C. determined by HPLC” value in data set [4] amounted to 51.5 µg/mL. In data set [3] (setting [24]), the “AUC (0-t)” value was determined as 8.4648 ± 1.114 µM·h, the “MRT (0-T)” value amounted to 6.8127 ± 1.364 h, the Tmax was 1.167 ± 0.2887 h and the t1/2 came out at 4.5078 ± 1.56 h. In data set [3] (SD rats, 20 μmol/kg, intragastric administration, plasma, listed as monohydrochloride monohydrate), the Cmax came out at 980 ± 60 nM. Besides, in data set [3], the “AUC (0-t) and Cmax, comparison in words” value is given as “relatively low”.
